Results reported in the NIST ThermoML archive (doi:10.1016/j.jct.2018.06.014).
± gives the expanded uncertainty stated by the source.

How the values were obtained:
[1] = Molar enthalpy of transition or fusion; settings: Crystal 1; DSC
[2] = for Normal melting temperature: Crystal 1, DTA; for Glass transition temperature: DSC

Structure (SMILES)	Molar enthalpy of transition or fusion [1] [kcal/mol]	Normal melting temperature [2] [°C]	Glass transition temperature [2] [°C]
CC[NH+](C)CC.O=S(=O)([O-])C(F)(F)F [diethylmethylammonium trifluoromethanesulfonate]	4.06 ± 0.478	-5.00 ± 2	–
COP(=O)([O-])OC.Cn1cc[n+](C)c1 [1,3-dimethylimidazolium dimethylphosphate]	–	–	-63.00 ± 2
CCCCn1cc[n+](C)c1.O=S(=O)([O-])C(F)(F)F [1-butyl-3-methylimidazolium trifluoromethanesulfonate]	6.21 ± 0.717	18.00 ± 2	–
CCN(C)CC.CS(=O)(=O)O [diethylmethylammonium methanesulfonate]	3.35 ± 0.478	39.00 ± 2	–
CCCC[N+]1(C)CCCCC1.O=S(=O)([O-])C(F)(F)F [1-butyl-1-methylpiperidinium trifluoromethanesulfonate]	5.5 ± 0.478	36.00 ± 2	–
CCCC[N+]1(C)CCCCC1.O=S(=O)([N-]S(=O)(=O)C(F)(F)F)C(F)(F)F	–	–	-72.00 ± 2
